Legend:
[1] = tested on: HDAC6; assay: ERα-dependent CAT reporter with LCoR and HDAC6 cotransfection in MCF-7 cells; assay type: cell-based, human; conditions: estradiol 10 nM, TSA 500 nM, trapoxin 50 nM
Procedure: All cells were cultured under the recommended conditions. For immunocytochemistry, COS-7 cells grown on collagen IV-treated microscope slides in 6-well plates in DMEM, supplemented with 10% FBS were transfected in medium without serum with 12.5 μl of lipofectamine 2000 (Invitrogen, Burlington, Ont.) containing 1 μg each of pSG5/LCoR and HA-Flag-HDAC6/pcDNA3. Medium was replaced 24 h after transfection and cells were prepared for immunocytochemistry after 48 h as described below. For immunoprecipitation of tagged proteins, MCF-7 cells in 100 mm dishes were transfected with 10 μl of lipofectamine containing 10 μg of pSG5 vectors containing Flag-LCoR, Flag-m1, Flag-m2 or Flag-m1+2. For analysis of the effects of HDACs 3 or 6 on LCoR corepression, COS-7 cells (60-70% confluent) grown in DMEM without phenol red, supplemented with 10% FBS on 6-well plates were transfected in medium without serum with lipofectamine 2000 (Invitrogen, Burlington, Ontario, Canada) with 100 ng of ERα expression vectors as indicated, 300 ng of LCoR/pSG5, 300 ng of HA-HDAC3/pCDNA3.1 or […], 250 ng of ERE3-TATA-CAT reporter plasmid, 250 ng of internal control vector pCMV-βgal, and pBluescript carrier DNA to 4 μg. Medium was replaced 18 hr after transfection by a medium containing charcoal-stripped serum and ligand (10 nM) for 30 hr, as indicated. […]

[2] = tested on: 5×17 mer-tk promoter; assay: GAL4-LCoR repression of 5×17 mer-tk promoter in COS-7 cells; assay type: cell-based; conditions: TSA 3 μM
Procedure: (§1) All cell lines were cultured under the recommended conditions. COS-7 cells grown in […] in DMEM without phenol red, supplemented with 10% FBS were transfected in medium without serum with lipofectamine 2000 (Invitrogen, Burlington, Ont.) with 100 ng of nuclear receptor expression vectors as indicated, 200 ng of TIF-2 or TIF-2.1, as indicated, 250 ng of reporter plasmid, 250 ng of infemal control vector pCMV-βgal, and various concentrations of LCoR/pSG5 or LCoR-LSKAA/pSG5 expression vectors and pSG5 carrier. Medium was replaced 24 h after transfection by a medium containing charcoal-stripped serum and ligand (100 nM) and TSA (3 μM) for 18 h, as indicated. Cells were harvested in 200 […] of reporter lysis buffer (Promega).
(§2) COS-7 cells were cotransfected with expression vectors for ERα HEG0 (A and C) or GR (D) or PR (F) or VDR (H), ERE3-TATA-pXP2 (A and C), GRE5/pXP2 (D and F) or VDRE3tk/pXP2 (H) luciferase reporter vectors, pCMV-β-gal as internal control, and LCoR/pSG5 or LSKAA/pSG5 expression vectors as indicated. Cells were treated with 10^−7M of hormones (solid bars) or vehicle (open bars). Normalized luciferase activities (RLU) are the means±SEM from at least 3 experiments. […] Cells were transfected as in FIG. 5A with LCoR, TIF-2 or TIF2.1 as indicated. […]

[3] = molecular target: T1, ERα (Homo sapiens, UniProt P03372); assay: Transient transfection luciferase reporter, ERα transactivation in COS-7 cells; assay type: cell-based; conditions: TSA 3 μM, COS-7 cells
T1 construct: expressed in transfected cells; host or cells: COS-7
T1 sequence (P03372 1-595): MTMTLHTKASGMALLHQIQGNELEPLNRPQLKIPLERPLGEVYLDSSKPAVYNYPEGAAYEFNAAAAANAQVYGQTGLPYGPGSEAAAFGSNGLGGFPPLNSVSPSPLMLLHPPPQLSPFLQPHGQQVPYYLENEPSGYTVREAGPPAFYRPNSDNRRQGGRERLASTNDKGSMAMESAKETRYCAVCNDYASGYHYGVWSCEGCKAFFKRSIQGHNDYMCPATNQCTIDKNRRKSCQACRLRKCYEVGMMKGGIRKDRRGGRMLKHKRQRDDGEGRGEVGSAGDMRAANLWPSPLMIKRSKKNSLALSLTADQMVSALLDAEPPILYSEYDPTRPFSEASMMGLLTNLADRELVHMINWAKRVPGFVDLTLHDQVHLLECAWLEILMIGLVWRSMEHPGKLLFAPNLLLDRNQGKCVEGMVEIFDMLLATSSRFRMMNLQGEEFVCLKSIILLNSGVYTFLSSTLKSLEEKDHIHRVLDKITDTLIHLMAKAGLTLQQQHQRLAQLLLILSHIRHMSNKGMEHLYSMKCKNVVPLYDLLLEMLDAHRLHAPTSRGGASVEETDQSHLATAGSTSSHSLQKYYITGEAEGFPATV
Procedure: as §1, §2

[4] = molecular target: T2, VDR (Homo sapiens, UniProt P11473); assay: Transient transfection luciferase reporter, VDR transactivation in COS-7 cells; assay type: cell-based; conditions: TSA 3 μM, COS-7 cells
T2 construct: expressed in transfected cells; host or cells: COS-7
T2 sequence (P11473 1-427): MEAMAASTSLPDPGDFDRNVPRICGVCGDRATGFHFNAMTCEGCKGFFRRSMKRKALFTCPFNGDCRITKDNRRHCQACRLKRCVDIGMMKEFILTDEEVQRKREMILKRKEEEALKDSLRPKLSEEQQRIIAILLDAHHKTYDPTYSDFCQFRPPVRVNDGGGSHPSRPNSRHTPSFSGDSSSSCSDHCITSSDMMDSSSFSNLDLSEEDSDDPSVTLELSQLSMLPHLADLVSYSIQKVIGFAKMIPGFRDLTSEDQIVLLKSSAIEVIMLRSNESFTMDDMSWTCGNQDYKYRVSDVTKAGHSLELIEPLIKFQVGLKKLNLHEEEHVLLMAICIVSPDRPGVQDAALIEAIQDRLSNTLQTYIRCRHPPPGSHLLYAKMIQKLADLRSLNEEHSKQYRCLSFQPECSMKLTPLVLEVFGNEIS
Procedure: as §1, §2

CC(/C=C/C(=O)NO)=C\[C@@H](C)C(=O)c1ccc(N(C)C)cc1 [TSA, trichostatin A]
effect on HDAC6 repression / enhancement of LCoR corepression of ERα transactivation [1]: abolished
effect on repression by GAL-LCoR [2]: little or no effect
effect on LCoR-dependent repression of ERα function [3]: completely abolished
effect on LCoR repression of VDR function [4]: little or no effect

Source: patent publication US20070054353A1, “Nuclear receptor transcriptional corepressor and uses thereof” (priority 2002, published 2007)
